US8969363B2, “Heterocyclic compounds and uses thereof” (Infinity Pharmaceuticals, Inc., priority 2011, dated 2015)
Where two headings read alike, the source gives them in different places.

Tests used:
Balb/c splenic B cells = assay: B cell activation and proliferation assay (Alamar Blue); type: cell-based; details: Mus musculus
Description: The ability of one or more subject compounds to inhibit B cell activation and proliferation is determined according to standard procedures known in the art. For example, an in vitro cellular proliferation assay is established that measures the metabolic activity of live cells. The assay is performed in a 96 well microtiter plate using Alamar Blue reduction. Balb/c splenic B cells are purified over a Ficoll-Paque™ PLUS gradient followed by magnetic cell separation using a MACS B cell Isolation Kit (Miletenyi). Cells are plated in 90 μl at 50,000 cells/well in B Cell Media (RPMI+10% FBS+Penn/Strep+50 μM bME+5 mM HEPES). A compound provided herein is diluted in B Cell Media and added in a 10 μl volume. Plates are incubated for 30 min at 37° C. and 5% CO2 (0.2% DMSO final concentration). A 50 μl B cell stimulation cocktail is then added containing either 10 μg/ml LPS or 5 μg/ml F(ab′)2 Donkey anti-mouse […] plus 2 ng/ml recombinant mouse IL4 in B Cell Media. Plates are incubated for 72 hours at 37° C. and 5% CO2. A volume of 15 μL of Alamar Blue reagent is added to each well and plates are incubated for 5 hours at 37° C. and 5% CO2. Alamar Blue fluoresce is read at 560Ex/590Em, and IC50 or EC50 values are calculated using GraphPad Prism 5.

PI3Kα = target: T1, PI3Kα (Homo sapiens, UniProt P42336); assay: PI3 Kinase HTRF assay, PI3Kα; type: biochemical; details: 10 μM PIP2, 10 μM ATP; 'Greater than 10 μM' and 'Greater than 1 μM to 10 μM'; read-out: PI3K α IC50
T1 construct: purchased Millipore Corporation 14-602-K
From the text: (§1) A PI3-Kinase HTRF® assay kit (cat No. 33-016) purchased from Millipore Corporation was used to screen compounds provided herein. This assay used specific, high affinity binding of the GRP1 pleckstrin homology (PH) domain to PIP3, the product of a Class 1A or 1B PI3 Kinase acting on its physiological substrate PIP2. During the detection phase of the assay, a complex was generated between the GST-tagged PH domain and biotinylated short chain PIP3. The biotinylated PIP3 and the GST-tagged PH domain recruited fluorophores (Streptavidin-Allophycocyanin and Europium-labeled anti-GST respectively) to form the fluorescence resonance energy transfer (FRET) architecture, generating a stable time-resolved FRET signal. The FRET complex was disrupted in a competitive manner by non-biotinylated PIP3, a product formed in the PI3 Kinase assay.
(§2) PI3 Kinase α, β, γ and δ activity was assayed using the PI3 Kinase HTRF® assay kit (catalogue No. 33-016) purchased from Millipore Corporation. Purified recombinant PI3Kα (catalogue No. 14-602-K), PI3Kβ (catalogue No. 14-603-K), PI3Kγ (catalogue No. 14-558-K) and PI3Kδ (catalogue No. 14-604-K) were obtained from Millipore Corporation. Purified recombinant PI3K enzyme was used to catalyze the phosphorylation of phosphatidylinositol 4,5-bisphosphate (PIP2 at 10 μM) to phosphatidylinositol 3,4,5-trisphosphate (PIP3) in the presence of 10 μM ATP. The assay was carried out in 384-well format and detected using a Perkin Elmer EnVision Xcite Multilabel Reader. Emission ratios were converted into percent inhibitions and imported into GraphPad Prism software. The concentration necessary to achieve inhibition of enzyme activity by 50% (IC50) was calculated using concentrations ranging from 20 μM to 0.1 nM (12-point curve). IC50 values were determined using a nonlinear regression model available in GraphPad Prism 5. […]

PI3Kβ = assay: PI3 Kinase HTRF assay, PI3Kβ; type: biochemical, human; details: 10 μM PIP2, 10 μM ATP, read-out: PI3K β IC50
From the text: as §1
as §2, with “Purified recombinant PI3Kα (catalogue No. 14-602-K), PI3Kβ (catalogue No. 14-603-K), PI3Kγ (catalogue No. 14-558-K) and PI3Kδ (catalogue No. 14-604-K) were obtained from Millipore Corporation.” left out, “The concentration necessary to achieve inhibition of enzyme activity by 50% (IC50) was calculated using concentrations ranging from 20 μM to 0.1 nM (12-point curve).” left out

[1] = 'Greater than 10 μM' and 'Greater than 1 μM to 10 μM'

PI3Kβ, sequence (Q8BTI9 whole entry): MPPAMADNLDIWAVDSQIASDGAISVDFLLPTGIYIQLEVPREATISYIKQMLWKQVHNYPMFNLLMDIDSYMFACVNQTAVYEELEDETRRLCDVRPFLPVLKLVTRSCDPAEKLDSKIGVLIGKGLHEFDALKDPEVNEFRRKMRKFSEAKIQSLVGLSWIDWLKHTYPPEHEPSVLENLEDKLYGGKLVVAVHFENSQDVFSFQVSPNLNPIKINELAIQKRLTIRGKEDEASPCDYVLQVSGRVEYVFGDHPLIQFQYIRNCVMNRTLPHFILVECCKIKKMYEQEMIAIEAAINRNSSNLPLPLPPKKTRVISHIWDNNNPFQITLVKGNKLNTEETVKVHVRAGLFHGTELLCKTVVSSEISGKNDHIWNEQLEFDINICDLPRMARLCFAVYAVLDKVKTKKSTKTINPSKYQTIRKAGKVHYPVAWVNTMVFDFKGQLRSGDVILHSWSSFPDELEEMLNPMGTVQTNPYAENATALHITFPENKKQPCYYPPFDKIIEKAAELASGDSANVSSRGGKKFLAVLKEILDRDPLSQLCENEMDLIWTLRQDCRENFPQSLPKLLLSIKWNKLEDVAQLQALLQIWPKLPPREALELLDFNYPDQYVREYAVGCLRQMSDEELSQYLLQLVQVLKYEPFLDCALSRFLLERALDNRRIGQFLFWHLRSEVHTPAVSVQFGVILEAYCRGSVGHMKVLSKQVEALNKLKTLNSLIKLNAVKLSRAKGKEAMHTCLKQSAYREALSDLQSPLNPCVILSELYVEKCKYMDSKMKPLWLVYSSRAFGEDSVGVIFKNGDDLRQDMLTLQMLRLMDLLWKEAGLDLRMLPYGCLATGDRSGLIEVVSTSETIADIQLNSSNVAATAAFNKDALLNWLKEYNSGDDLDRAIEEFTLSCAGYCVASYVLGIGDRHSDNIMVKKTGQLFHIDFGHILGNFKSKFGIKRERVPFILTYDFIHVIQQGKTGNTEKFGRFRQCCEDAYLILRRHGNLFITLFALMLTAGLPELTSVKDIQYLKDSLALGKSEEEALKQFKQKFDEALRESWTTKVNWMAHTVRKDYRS
T1 sequence (P42336 whole entry): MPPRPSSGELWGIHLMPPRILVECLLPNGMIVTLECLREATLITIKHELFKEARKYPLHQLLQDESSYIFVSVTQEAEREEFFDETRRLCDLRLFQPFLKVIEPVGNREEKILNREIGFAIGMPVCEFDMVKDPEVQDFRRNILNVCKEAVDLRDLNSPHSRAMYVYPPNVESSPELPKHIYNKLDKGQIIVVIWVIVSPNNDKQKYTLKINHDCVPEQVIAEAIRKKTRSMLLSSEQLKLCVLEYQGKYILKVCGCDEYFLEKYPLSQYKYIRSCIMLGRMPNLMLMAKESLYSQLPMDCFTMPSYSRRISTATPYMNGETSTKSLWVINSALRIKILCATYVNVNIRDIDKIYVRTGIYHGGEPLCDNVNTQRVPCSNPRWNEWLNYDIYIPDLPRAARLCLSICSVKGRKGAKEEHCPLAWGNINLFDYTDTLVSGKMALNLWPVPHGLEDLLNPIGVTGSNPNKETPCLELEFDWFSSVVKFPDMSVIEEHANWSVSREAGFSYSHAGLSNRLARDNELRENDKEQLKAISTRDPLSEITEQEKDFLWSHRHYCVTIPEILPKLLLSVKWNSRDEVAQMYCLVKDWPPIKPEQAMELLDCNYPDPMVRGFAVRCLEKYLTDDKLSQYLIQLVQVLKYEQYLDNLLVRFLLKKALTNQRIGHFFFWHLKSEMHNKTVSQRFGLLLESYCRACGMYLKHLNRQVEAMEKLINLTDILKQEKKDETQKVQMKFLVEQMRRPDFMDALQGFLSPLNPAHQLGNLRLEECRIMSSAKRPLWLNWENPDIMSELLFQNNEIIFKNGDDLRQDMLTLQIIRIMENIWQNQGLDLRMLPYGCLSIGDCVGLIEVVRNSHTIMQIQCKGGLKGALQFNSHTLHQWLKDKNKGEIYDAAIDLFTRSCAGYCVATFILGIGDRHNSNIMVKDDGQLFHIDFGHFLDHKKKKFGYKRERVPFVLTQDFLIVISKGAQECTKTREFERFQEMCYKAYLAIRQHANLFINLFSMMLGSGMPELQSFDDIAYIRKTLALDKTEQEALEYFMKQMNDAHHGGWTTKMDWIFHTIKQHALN
T1 sequence (P27986 whole entry partner): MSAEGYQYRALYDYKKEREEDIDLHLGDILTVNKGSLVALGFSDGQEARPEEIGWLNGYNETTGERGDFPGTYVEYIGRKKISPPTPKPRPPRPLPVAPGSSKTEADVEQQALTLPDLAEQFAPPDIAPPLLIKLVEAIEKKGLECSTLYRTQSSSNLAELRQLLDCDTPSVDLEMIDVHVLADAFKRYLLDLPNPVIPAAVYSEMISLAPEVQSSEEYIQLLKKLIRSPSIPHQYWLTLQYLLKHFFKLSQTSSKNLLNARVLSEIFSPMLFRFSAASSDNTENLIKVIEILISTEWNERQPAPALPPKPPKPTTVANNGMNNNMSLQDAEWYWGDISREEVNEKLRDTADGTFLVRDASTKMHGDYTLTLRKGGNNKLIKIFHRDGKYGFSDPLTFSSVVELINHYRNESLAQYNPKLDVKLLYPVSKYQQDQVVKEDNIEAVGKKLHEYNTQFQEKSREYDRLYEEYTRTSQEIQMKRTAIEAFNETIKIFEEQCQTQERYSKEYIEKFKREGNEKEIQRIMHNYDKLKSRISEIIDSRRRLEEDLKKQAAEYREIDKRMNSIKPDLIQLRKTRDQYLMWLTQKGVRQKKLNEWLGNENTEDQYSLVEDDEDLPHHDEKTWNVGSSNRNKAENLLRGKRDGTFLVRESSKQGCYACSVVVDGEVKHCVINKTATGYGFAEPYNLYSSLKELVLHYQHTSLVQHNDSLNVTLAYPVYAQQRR

IC50 (PI3Kα) | IC50 (PI3Kβ; [1]) | IC50 (PI3Kβ; 'Less than 100 nM') | Structure (SMILES) | EC50 (Balb/c splenic B cells; 'Less than 100 nM') | EC50 (Balb/c splenic B cells; 1 μM to 100 nM)
1000 to 10000 nM |  |  | C[C@H](Nc1ccnn2ccnc12)c1cc2cccc(C(F)(F)F)c2c(=O)n1-c1ccccc1 [III-8, (S)-3-(1-(imidazo[1,2-b]pyridazin-8-ylamino)ethyl)-2-phenyl-8-(trifluoromethyl)isoquinolin-1(2H)-one] | < 100 nM | 
1000 to 10000 nM |  |  | C[C@H](Nc1ncnc2cccnc12)c1cc2cccc(C(F)(F)F)c2c(=O)n1-c1ccccc1 [III-4] | < 100 nM | 
1000 to 10000 nM |  |  | C[C@H](Nc1ccnc2ccnn12)c1cc2cccc(Cl)c2c(=O)n1C1CC1 [II-7] | < 100 nM | 
1000 to 10000 nM |  |  | C[C@H](Nc1ncnc2ccnn12)c1cc2cccc(Cl)c2c(=O)n1-c1ccccc1 [II-24] |  | 
1000 to 10000 nM |  |  | C[C@H](Nc1ncnc2scnc12)c1cc2scc(C(F)(F)F)c2c(=O)n1-c1ccccc1 [III-39] | < 100 nM | 
1000 to 10000 nM | 1000 to 10000 nM |  | C[C@H](Nc1ncnc2[nH]cc(F)c12)c1cc2cccc(C(F)(F)F)c2c(=O)n1-c1ccccc1 [III-18] |  | 
1000 to 10000 nM |  |  | C[C@H](Nc1ncnc2cccnc12)c1cc2cccc(Cl)c2c(=O)n1-c1ccccc1 [Compound I-2] | < 100 nM | 
1000 to 10000 nM |  |  | C[C@H](Nc1ncnn2ccnc12)c1cc2cccc(C(F)(F)F)c2c(=O)n1-c1ccccc1 [III-27] | < 100 nM | 
1000 to 10000 nM |  |  | C[C@H](Nc1ccnn2ccnc12)c1cc2cccc(Cl)c2c(=O)n1C1CC1 [II-11] | < 100 nM | 
1000 to 10000 nM |  |  | C[C@H](Nc1ncnn2ccnc12)c1cc2cccc(Cl)c2c(=O)n1-c1ccccc1 [IV-12] |  | 
1000 to 10000 nM |  |  | C[C@H](Nc1ccnn2ccnc12)c1cc2scc(Cl)c2c(=O)n1-c1ccccc1 [II-22] |  | 
1000 to 10000 nM |  |  | C[C@H](Nc1nc(N)ncc1C#N)c1cc2cccc(C(F)(F)F)c2c(=O)n1-c1cccc(F)c1 [III-45] | < 100 nM | 
1000 to 10000 nM | > 10000 nM |  | Cc1nn(C)cc1-c1cccc2cc([C@H](C)Nc3ncnc4cccnc34)n(-c3ccccc3)c(=O)c12 [Compound I-47] |  | 
1000 to 10000 nM | 1000 to 10000 nM |  | C[C@H](Nc1nc(N)nc2scnc12)c1cc2cccc(C(F)(F)F)c2c(=O)n1-c1ccccc1 [III-25] |  | 
 | 1000 to 10000 nM |  | Cc1cc(-c2cccc3cc([C@H](C)Nc4ncnc5cccnc45)n(-c4ccccc4)c(=O)c23)ccn1 [Compound I-76] | < 100 nM | 
1000 to 10000 nM |  |  | C[C@H](Nc1ncnc(N)c1C#N)c1cc2cccc(C(F)(F)F)c2c(=O)n1-c1cccc(F)c1 [III-49] | < 100 nM | 
 | > 10000 nM |  | Cc1ncc(-c2cccc3cc([C@H](C)Nc4ncnc5cccnc45)n(-c4ccccc4)c(=O)c23)cn1 [Compound I-41] | < 100 nM | 
1000 to 10000 nM |  |  | C[C@H](Nc1ccnc2ccnn12)c1cc2scc(Cl)c2c(=O)n1-c1ccccc1 [II-20] |  | 
1000 to 10000 nM |  |  | C[C@H](Nc1ccnc2ccnn12)c1cc2cccc(Cl)c2c(=O)n1-c1ccccc1 [II-2, (S)-8-chloro-2-phenyl-3-(1-(pyrazolo[1,5-a]pyrimidin-7-ylamino)ethyl)isoquinolin-1(2H)-one] | < 100 nM | 
1000 to 10000 nM |  |  | C[C@H](Nc1nc(N)nc2cccnc12)c1cc2cccc(C(F)(F)F)c2c(=O)n1-c1ccccc1 [III-23] |  | 
1000 to 10000 nM | 1000 to 10000 nM |  | C[C@H](Nc1ncnn2ccnc12)c1cc2cccc(Cl)c2c(=O)n1-c1cccc(F)c1 [IV-13] |  | 
 | > 10000 nM |  | C[C@H](Nc1ncnc(N)c1C#N)c1cc2cccc(C(F)(F)F)c2c(=O)n1-c1ccccc1 [III-42] | < 100 nM | 

IC50 (PI3Kα) | IC50 (PI3Kβ; [1]) | IC50 (PI3Kβ; 'Less than 100 nM') | Structure (SMILES) | EC50 (Balb/c splenic B cells; 'Less than 100 nM') | EC50 (Balb/c splenic B cells; 1 μM to 100 nM)
 | > 10000 nM |  | COc1ncc(-c2cccc3cc([C@H](C)Nc4ncnc5cccnc45)n(-c4ccccc4)c(=O)c23)cn1 [Compound I-42] | < 100 nM | 
1000 to 10000 nM |  |  | C[C@H](Nc1ccnc2ccnn12)c1cc2cccc(C(F)(F)F)c2c(=O)n1-c1ccccc1 [III-6] | < 100 nM | 
 | 1000 to 10000 nM |  | C[C@H](Nc1nc(N)nc2cccnc12)c1cc2cccc(-c3cnn(C)c3)c2c(=O)n1C1CC1 [Compound I-40] | < 100 nM | 
1000 to 10000 nM | > 10000 nM |  | Cc1cc(-c2cccc3cc([C@H](C)Nc4ncnc5cccnc45)n(-c4ccccc4)c(=O)c23)cnc1C [Compound I-44] |  | 
1000 to 10000 nM |  |  | C[C@H](Nc1ncnc2[nH]cnc12)c1cc2cccc(C(F)(F)F)c2c(=O)n1-c1ccccc1 [III-3] | < 100 nM | 
1000 to 10000 nM |  |  | C[C@H](Nc1nc(N)nc2[nH]cnc12)c1cc2cccc(C(F)(F)F)c2c(=O)n1-c1cccc(F)c1 [III-30] | < 100 nM | 
 |  | < 100 nM | C[C@H](Nc1ncnc2scnc12)c1cc2cccc(C(F)(F)F)c2c(=O)n1-c1ccccc1 [III-5] | < 100 nM | 
 | > 10000 nM |  | CNc1nc(N[C@@H](C)c2cc3cccc(NC)c3c(=O)n2-c2ccccc2)c2ncccc2n1 [Compound I-95] |  | 100 to 1000 nM
1000 to 10000 nM |  |  | C[C@H](Nc1ncnc2scnc12)c1cc2cccc(C(F)(F)F)c2c(=O)n1-c1cccc(F)c1 [III-10] | < 100 nM | 
 | 1000 to 10000 nM |  | C[C@H](Nc1nc(N)ncc1C(F)(F)F)c1cc2cccc(C(F)(F)F)c2c(=O)n1-c1cccc(F)c1 [III-46] |  | 100 to 1000 nM
 | > 10000 nM |  | Cc1ncc(-c2cccc3cc([C@H](C)Nc4nc(N)nc5cccnc45)n(-c4ccccc4)c(=O)c23)cn1 [Compound I-59] | < 100 nM | 
1000 to 10000 nM |  |  | C[C@H](Nc1nc(N)ncc1C#N)c1cc2cccc(C(F)(F)F)c2c(=O)n1-c1ccccc1 [III-44] | < 100 nM | 
 | 1000 to 10000 nM |  | C[C@H](Nc1nc(N)nc2nccnc12)c1cc2cccc(Cl)c2c(=O)n1-c1ccccc1 [IV-22] | < 100 nM | 
1000 to 10000 nM |  |  | C[C@H](Nc1ccnc2cccnc12)c1cc2cccc(Cl)c2c(=O)n1-c1ccccc1 [Compound I-49] | < 100 nM | 
1000 to 10000 nM |  |  | C[C@H](Nc1ccnc2scnc12)c1cc2cccc(C(F)(F)F)c2c(=O)n1-c1ccccc1 [III-36, (S)-2-phenyl-3-(1-(thiazolo[5,4-b]pyridin-7-ylamino)ethyl)-8-(trifluoromethyl)isoquinolin-1(2H)-one] | < 100 nM | 
1000 to 10000 nM | > 10000 nM |  | C[C@H](Nc1nc(N)nc2cccnc12)c1cc2cccc(-c3cnn(C)c3)c2c(=O)n1-c1ccccc1 [Compound I-36] |  | 
1000 to 10000 nM |  |  | C[C@H](Nc1ccnn2ccnc12)c1cc2cccc(Cl)c2c(=O)n1-c1cccc(F)c1 [II-14] | < 100 nM | 
 | 1000 to 10000 nM |  | C[C@H](Nc1ccnc2cccnc12)c1cc2cccc(C(F)(F)F)c2c(=O)n1-c1ccccc1 [III-31] | < 100 nM | 
1000 to 10000 nM |  |  | C[C@H](Nc1ncnc2[nH]cc(C(N)=O)c12)c1cc2cccc(C(F)(F)F)c2c(=O)n1-c1ccccc1 [III-20] |  | 
1000 to 10000 nM |  |  | C[C@H](Nc1ncnc2cccnc12)c1cc2scc(Cl)c2c(=O)n1-c1ccccc1 [Compound I-29] |  | 
 | > 10000 nM |  | COc1ncc(-c2cccc3cc([C@H](C)Nc4nc(N)nc5cccnc45)n(-c4ccccc4)c(=O)c23)cn1 [Compound I-57] | < 100 nM | 
1000 to 10000 nM | > 10000 nM |  | COc1ncc(-c2cccc3cc([C@H](C)Nc4ccnn5ccnc45)n(-c4ccccc4)c(=O)c23)cn1 [II-48] |  | 
